For assay [1], the system named is Notch signaling pathway. The experiment in a line: IL-10 induction in T helper cells cultured with CD11c+ dendritic cells, IL-12 and/or CpG (Example 11). The class given is cell-based, mouse. The settings on record: 125 nM inhibitor, OVA peptide, 5 days, FIG. 12. On the procedure:
Antigen-specific (OVA-TZR transgenic) naive CD4+CD25-CD62L+T helper cells were isolated using flow cytometry, cultured with CD11c+ dendritic cells from spleen and lymphatic nodes (at a ratio of 20:1) in the presence of IL-12 (10 ng/ml) and/or 1 μM CpG and stimulated with OVA peptide (0.2 μg/ml). After 5 days the cells were restimulated with PMA/ionomycin, and their cytokine expression was analyzed using intracellular staining.
The expression of IL-10 can be blocked by a specific inhibitor of the Notch signaling pathway (γ-secretase inhibitor, Calbiochem, 125 nM).

For assay [2], the system named is Notch signaling pathway. The experiment in a line: IL-10 expression of human T cells cocultured with plasmacytoid or myeloid dendritic cells (Example 15). The class given is cell-based. The following applies: 85 nM inhibitor, SEB 1 μg/ml, 6 days.
The test system of assay [3] is Notch signaling pathway. Briefly: IL-10 induction in T helper cells cocultured with A20-B cells expressing Notch ligands DII-1 or DII-4 (Example 9). The class given is cell-based, mouse. The following applies: 125 nM inhibitor; IL-12 10 ng/ml, OVA peptide, 5 days, intracellular staining; FIG. 10A. On the procedure: Antigen-specific (OVA-TZR transgenic) naive CD4+CD25-CD62L+T helper cells were isolated using flow cytometry, cultured with A20-B cells (at a ratio of 2:1) in the presence of IL-12 (10 ng/ml), which cells express the Notch ligands DII-1 or DII-4, and stimulated with OVA peptide (0.2 μg/ml). After 5 days the cells were restimulated with PMA/ionomycin, and their cytokine expression was analyzed using intracellular staining.
This induction can be blocked in a specific manner by an inhibitor of the Notch signaling pathway (γ-secretase inhibitor, 125 nM Insolution γ-secretase inhibitor X, Calbiochem) (FIG. 10A). Further coculturing in the presence of the DII-1 and DII-4 ligands dramatically increases the IL-10 production (FIG. 10B).

Assay [4] has as its system CD11c-positive dendritic cells. The experiment in a line: Expression of Notch ligands in dendritic cells after TLR stimulation (Example 10). The class given is cell-based, mice. The settings on record: stimulation for 15 h; 50 μg/ml pIC, 1 μg/ml LPS, 1 μg/ml flagellin or 1 μM CpG; FIG. 11. Here is the method:
CD11c-positive dendritic cells were isolated from spleen and lymphatic nodes of naive mice using flow cytometry and stimulated with 50 μg/ml pIC (TLR3), 1 μg/ml LPS (TLR4), 1 μg/ml flagellin (TLR5) or 1 μM CpG (TLR9) for 15 h.

Another assay has as its system Notch. Briefly: IL-10 expression in lymphatic node cells after transfer of OVA-specific Th cells and OVA/CpG immunization (Example 12). The class given is in vivo. The following applies: mice received 10 μM/kg; lymphatic node cells after 5 days; FIG. 13. On the procedure: 1·10^7 antigen specific (OVA-TZR transgenic) naive Th cells were transferred into recipient mice which were subsequently immunized s.c. with 50 μg of OVA/20 μg of CpG. After 5 days the lymphatic node cells were restimulated with PMA/ionomycin and analyzed using intracellular cytokine staining. IFN-γ/IL-10 double-positive cells were induced under these conditions. The expression of IL-10 was blocked in mice which had received 10 μM/kg of a Notch inhibitor (γ-secretase inhibitor, DBZ, Syncom) (FIG. 13).

The next assay has as its system STAT4. Briefly: IL-10 production (ELISA) of Notch3IC-transduced Th cells cultured with interleukin 27 (Example 5). The settings on record: 10 ng/ml interleukin 27, wild-type vs STAT4-deficient, FIG. 6. The class given is cell-based, mice. On the procedure:
Naive CD4+-CD25-CD62L+T helper cells from wild-type (C57BU6) or STAT4-deficient mice were isolated using flow cytometry. The cells were subsequently cultured with irradiated (30 Gy) MHCII+ antigen-presenting cells at a ratio of 1:4 in the presence of interleukin 27 (10 ng/ml). Stimulation was effected polyclonally using 0.5 μg/ml anti-CD3 and 1 μg/ml anti-CD28. After 24 h the cells were retro-virally transduced with active Notch3 (Notch3IC). To this end, the cells were centrifuged with virus supernatant for 75 min at 750×g and 32° C. After 5 days the cells were restimulated with PMA/ionomycin, and their cytokine production was analyzed using ELISA.
No IL-10 production is observed in the event of STAT4-deficient cells.

In the case of `CC(C)C[C@H](NC(=O)[C@H](Cc1ccccc1)C[C@@H](O)[C@H](Cc1ccccc1)NC(=O)OC(C)(C)C)C(=O)N[C@@H](Cc1ccccc1)C(N)=O` [Insolution γ-secretase inhibitor X], the “expression of IL-10 in the T cells” value in the assay on Notch signaling pathway [1] is listed as “blocked”. Moreover, the “IL-10 expression, naive T cells cocultured with plasmacytoid dendritic cells” value in the assay with Notch signaling pathway [2] (FIG. 16A) was “blocked”. Further, in the assay with Notch signaling pathway [2] (FIG. 16B), the “IL-10 production, memory T cells cocultured with plasmacytoid or myeloid dendritic cells” value was “blocked in either case”. Further, the “IL-10 production induced by coculturing with Delta-like ligands” value in the assay on Notch signaling pathway [3] is on record as “blocked”.

For flagellin, in assay [4], the “Expression of Delta-like 1” value is “largely unchanged”, the “Expression of Jagged 1” value was “largely unchanged” and the “expression of the Delta-like 4 Notch ligand” value is reported as “enhanced”.

For the molecule `C[C@H](NC(=O)Cc1cc(F)cc(F)c1)C(=O)N[C@@H]1C(=O)N(C)c2ccccc2-c2ccccc21` [DBZ], the “expression of IL-10 (IFN-γ/IL-10 double-positive cells)” value in the assay on Notch was “blocked”.

B1: IL-27: STAT4-activating cytokine of the IL-12 family (protein, UniProt Q8NEV9 29-243; Q14213 21-229, looked up)
Interleukin-27 subunit alpha: FPRPPGRPQLSLQELRREFTVSLHLARKLLSEVRGQAHRFAESHLPGVNLYLLPLGEQLPDVSLTFQAWRRLSDPERLCFISTTLQPFHALLGGLGTQGRWTNMERMQLWAMRLDLRDLQRHLRFQVLAAGFNLPEEEEEEEEEEEEERKGLLPGALGSALQGPAQVSWPQLLSTYRLLHSLELVLSRAVRELLLLSKAGHSVWPLGFPTLSPQP
Interleukin-27 subunit beta: RKGPPAALTLPRVQCRASRYPIAVDCSWTLPPAPNSTSPVSFIATYRLGMAARGHSWPCLQQTPTSTSCTITDVQLFSMAPYVLNVTAVHPWGSSSSFVPFITEHIIKPDPPEGVRLSPLAERQLQVQWEPPGSWPFPEIFSLKYWIRYKRQGAARFHRVGPIEATSFILRAVRPRARYYVQVAAQDLTDYGELSDWSLPATATMSLGK
As for B1, the “IL-10 production together with Notch, STAT4-dependent” value in the assay on STAT4 was “induction of IL-10”.

Values taken from US20100136022A1, “METHOD FOR MODULATING THE IMMUNE RESPONSE BY ACTIVATING OR INACTIVATING THE NOTCH AND/OR STAT4 SIGNAL PATH” (DEUTSCHES RHEUMA-FORSCHUNGSZENTRUM BERLIN, priority 2007, published 2010).
